Data: patent US12275731B2, “Azaindole inhibitors of wild-type and mutant forms of LRRK2” (DANA-FARBER CANCER INSTITUTE, INC., priority 2018, dated 2025)

Columns and labels:
Experiment in all cases: KinomeScan profiling
Format in all cases: binding
[1] = target: CAMK2D (Homo sapiens, UniProt Q13557); settings: read-out: % control
Outline: (§1)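 The panel spans 468 kinases, and each inventive compound was applied at 1 μM from DMSO. Lower % control means stronger binding; the activity cut-off is set at less than 35%.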

[2] = target: CDC2L1 (Homo sapiens, UniProt P21127); settings: CDC2L1, 1 μM; read-out: % control
Outline: as §1

[3] = target: CSNK1G1 (Homo sapiens, UniProt Q9HCP0); settings: CSNK1G1, 1 μM; read-out: % control
Outline: as §1

[4] = target: CSNK1G2 (Homo sapiens, UniProt P78368); settings: CSNK1G2, 1 μM; read-out: % control
Outline: as §1

[5] = target: T1, DCAMKL3 (Homo sapiens, UniProt Q9C098); settings: DCAMKL3, 1 μM; read-out: % control
T1 sequence (Q9C098 1-648): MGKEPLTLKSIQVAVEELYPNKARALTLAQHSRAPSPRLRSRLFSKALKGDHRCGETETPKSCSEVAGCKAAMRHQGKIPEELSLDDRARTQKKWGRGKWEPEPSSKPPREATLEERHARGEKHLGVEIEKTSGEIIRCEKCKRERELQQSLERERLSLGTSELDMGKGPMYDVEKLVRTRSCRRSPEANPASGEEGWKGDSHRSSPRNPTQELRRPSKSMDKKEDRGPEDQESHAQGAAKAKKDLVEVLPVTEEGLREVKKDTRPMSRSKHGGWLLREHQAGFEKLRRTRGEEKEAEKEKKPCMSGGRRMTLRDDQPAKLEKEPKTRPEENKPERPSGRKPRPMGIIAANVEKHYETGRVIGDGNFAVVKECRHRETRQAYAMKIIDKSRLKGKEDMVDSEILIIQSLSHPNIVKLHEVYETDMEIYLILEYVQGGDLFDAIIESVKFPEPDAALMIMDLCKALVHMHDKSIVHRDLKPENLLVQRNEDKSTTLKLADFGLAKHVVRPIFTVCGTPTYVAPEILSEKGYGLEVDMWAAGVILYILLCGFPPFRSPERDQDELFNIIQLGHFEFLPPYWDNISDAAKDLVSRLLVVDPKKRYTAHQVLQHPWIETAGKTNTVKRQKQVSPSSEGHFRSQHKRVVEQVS
Outline: as §1

[6] = target: T2, DLK (Homo sapiens, UniProt Q12852); settings: read-out: % control
T2 sequence (Q12852 1-859): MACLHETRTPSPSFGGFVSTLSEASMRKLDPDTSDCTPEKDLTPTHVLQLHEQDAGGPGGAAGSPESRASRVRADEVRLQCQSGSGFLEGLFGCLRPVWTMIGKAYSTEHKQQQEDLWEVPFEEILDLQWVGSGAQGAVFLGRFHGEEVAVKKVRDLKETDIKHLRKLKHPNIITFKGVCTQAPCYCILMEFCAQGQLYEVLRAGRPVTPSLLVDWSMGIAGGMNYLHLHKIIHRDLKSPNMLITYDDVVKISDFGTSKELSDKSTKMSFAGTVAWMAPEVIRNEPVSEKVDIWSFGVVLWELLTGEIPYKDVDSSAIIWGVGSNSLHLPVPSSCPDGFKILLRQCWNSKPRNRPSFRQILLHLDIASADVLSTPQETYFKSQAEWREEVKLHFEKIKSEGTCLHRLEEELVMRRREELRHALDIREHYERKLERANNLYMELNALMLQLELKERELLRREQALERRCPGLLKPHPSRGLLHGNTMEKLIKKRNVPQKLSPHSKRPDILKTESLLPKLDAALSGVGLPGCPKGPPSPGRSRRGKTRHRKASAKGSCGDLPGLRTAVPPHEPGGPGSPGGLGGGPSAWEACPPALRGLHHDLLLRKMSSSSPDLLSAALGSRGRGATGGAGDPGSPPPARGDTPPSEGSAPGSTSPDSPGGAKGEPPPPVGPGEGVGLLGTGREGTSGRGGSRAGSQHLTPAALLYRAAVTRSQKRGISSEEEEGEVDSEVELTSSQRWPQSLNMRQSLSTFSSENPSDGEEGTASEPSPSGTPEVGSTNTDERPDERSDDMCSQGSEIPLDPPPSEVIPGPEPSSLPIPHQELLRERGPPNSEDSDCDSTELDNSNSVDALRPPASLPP
Outline: as §1

[7] = target: DYRK1B (Homo sapiens, UniProt Q9Y463); settings: read-out: % control
Outline: as §1

[8] = target: T3, INSRR (Homo sapiens, UniProt P14616); settings: read-out: % control
T3 construct: purchased KinomeScan®
Outline: as §1

[9] = target: LRRK2 (Homo sapiens, UniProt Q5S007); settings: LRRK2, 1 μM; read-out: % control
Outline: as §1

[10] = target: MAP4K4 (Homo sapiens, UniProt O95819); settings: MAP4K4, 1 μM; read-out: % control
Outline: as §1

[11] = target: MYLK2 (Homo sapiens, UniProt Q9H1R3); settings: MYLK2, 1 μM; read-out: % control
Outline: as §1

[12] = target: T4, PIM1 (Homo sapiens, UniProt P11309); settings: PIM1, 1 μM; read-out: % control
T4 construct: purchased KinomeScan® (panel service)
Outline: as §1

[13] = target: T5, PKAC-alpha (Homo sapiens, UniProt P17612); settings: read-out: % control
T5 construct: purchased KinomeScan® (panel service)
Outline: as §1

[14] = target: PKN2 (Homo sapiens, UniProt Q16513); settings: PKN2, 1 μM; read-out: % control
Outline: as §1

[15] = target: T6, SBK1 (Homo sapiens, UniProt Q52WX2); settings: SBK1, 1 μM; read-out: % control
T6 construct: purchased KinomeScan® (panel service)
Outline: as §1

[16] = target: WEE2 (Homo sapiens, UniProt P0C1S8); settings: WEE2, 1 μM; read-out: % control
Outline: as §1

CSNK1G1, sequence (Q9HCP0 whole entry): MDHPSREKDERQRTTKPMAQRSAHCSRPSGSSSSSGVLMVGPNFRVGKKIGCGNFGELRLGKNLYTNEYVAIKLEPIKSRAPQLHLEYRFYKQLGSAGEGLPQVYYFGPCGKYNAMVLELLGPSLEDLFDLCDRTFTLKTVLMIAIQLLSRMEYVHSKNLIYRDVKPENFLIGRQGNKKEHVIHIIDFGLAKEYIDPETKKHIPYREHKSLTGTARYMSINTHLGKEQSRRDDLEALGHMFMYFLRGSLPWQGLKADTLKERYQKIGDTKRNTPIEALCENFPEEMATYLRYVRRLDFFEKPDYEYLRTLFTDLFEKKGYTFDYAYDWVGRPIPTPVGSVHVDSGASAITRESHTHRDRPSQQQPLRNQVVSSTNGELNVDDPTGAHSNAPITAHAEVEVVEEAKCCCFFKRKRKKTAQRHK
CDC2L1, sequence (P21127 whole entry): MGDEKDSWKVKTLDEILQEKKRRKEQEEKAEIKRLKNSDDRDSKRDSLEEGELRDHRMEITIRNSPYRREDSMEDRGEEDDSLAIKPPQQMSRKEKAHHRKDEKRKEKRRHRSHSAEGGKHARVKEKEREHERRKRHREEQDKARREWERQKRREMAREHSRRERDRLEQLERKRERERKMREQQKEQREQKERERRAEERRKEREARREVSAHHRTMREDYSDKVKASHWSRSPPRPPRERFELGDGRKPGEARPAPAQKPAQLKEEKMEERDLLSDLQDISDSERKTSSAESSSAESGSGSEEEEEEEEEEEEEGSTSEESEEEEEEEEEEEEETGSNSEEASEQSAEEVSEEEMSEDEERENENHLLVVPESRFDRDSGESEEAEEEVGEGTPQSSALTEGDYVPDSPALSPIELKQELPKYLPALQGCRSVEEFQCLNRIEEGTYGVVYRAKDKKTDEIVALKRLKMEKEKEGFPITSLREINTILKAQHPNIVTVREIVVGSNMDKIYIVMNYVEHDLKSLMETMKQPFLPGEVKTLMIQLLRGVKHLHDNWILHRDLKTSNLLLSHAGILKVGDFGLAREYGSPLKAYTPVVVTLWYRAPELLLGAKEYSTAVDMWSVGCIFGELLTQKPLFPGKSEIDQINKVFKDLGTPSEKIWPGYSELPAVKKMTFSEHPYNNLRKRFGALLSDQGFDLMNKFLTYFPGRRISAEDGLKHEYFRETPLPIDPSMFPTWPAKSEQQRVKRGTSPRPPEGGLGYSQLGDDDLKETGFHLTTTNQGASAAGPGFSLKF
LRRK2, sequence (Q5S007 whole entry): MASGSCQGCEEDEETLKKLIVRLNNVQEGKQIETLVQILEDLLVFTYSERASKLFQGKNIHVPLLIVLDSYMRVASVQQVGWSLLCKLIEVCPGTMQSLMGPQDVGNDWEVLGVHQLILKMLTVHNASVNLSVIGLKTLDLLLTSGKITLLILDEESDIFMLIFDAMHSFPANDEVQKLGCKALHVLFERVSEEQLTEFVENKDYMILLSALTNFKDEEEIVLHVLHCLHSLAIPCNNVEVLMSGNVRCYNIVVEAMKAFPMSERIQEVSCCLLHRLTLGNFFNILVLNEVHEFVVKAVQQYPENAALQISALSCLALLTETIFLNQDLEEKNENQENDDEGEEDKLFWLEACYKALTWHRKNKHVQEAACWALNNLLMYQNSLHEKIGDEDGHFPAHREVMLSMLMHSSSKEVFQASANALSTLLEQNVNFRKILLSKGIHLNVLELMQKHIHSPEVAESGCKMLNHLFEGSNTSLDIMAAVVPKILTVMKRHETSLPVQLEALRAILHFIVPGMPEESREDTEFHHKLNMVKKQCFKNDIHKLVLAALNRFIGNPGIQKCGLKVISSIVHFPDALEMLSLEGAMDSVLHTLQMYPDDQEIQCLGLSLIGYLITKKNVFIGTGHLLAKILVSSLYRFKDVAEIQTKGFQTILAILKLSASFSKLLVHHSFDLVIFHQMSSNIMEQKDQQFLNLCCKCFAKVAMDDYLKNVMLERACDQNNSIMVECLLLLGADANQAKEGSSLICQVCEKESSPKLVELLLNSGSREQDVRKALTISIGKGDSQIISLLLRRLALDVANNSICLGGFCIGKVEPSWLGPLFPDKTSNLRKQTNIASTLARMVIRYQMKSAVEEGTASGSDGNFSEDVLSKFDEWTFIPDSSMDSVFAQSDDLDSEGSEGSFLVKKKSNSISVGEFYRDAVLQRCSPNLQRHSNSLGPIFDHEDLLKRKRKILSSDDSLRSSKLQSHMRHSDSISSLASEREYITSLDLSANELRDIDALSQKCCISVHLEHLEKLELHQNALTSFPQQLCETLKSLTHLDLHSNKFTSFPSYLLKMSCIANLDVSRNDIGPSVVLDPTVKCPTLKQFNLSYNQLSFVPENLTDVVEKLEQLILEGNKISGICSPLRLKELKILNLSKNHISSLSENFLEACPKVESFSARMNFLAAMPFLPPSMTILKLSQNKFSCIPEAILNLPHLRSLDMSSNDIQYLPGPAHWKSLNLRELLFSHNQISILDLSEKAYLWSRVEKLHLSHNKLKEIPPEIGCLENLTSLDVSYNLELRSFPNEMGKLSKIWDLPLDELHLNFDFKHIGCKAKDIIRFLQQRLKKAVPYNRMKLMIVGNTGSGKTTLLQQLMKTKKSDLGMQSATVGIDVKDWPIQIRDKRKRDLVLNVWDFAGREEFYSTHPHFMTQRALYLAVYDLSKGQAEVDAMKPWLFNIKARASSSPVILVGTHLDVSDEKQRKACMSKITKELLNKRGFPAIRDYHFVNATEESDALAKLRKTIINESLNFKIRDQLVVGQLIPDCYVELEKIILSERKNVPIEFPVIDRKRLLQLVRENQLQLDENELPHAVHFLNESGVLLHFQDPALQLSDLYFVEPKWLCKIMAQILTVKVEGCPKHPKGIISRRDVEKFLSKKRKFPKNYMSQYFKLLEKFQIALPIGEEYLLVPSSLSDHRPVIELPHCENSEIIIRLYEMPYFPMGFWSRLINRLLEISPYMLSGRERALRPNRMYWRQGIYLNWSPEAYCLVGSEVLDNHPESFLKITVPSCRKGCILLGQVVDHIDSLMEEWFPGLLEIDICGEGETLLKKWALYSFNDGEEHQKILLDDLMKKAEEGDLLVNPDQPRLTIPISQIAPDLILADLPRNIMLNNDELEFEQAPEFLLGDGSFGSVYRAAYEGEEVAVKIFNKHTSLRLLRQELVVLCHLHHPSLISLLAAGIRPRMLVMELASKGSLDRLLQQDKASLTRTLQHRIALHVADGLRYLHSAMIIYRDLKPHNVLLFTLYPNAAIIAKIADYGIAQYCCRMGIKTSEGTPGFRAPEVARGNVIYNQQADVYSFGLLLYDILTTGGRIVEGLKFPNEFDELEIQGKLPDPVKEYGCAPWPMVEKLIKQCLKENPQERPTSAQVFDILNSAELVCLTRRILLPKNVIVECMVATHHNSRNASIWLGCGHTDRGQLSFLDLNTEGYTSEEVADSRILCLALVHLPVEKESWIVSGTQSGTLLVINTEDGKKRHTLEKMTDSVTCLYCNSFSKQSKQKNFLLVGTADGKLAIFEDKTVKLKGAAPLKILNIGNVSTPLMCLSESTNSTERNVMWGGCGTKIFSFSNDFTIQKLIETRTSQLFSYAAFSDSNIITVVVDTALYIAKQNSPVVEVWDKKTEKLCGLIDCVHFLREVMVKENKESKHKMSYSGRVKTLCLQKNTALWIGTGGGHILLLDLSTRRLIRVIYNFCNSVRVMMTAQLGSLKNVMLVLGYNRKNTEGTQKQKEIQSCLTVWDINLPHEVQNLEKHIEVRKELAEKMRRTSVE
WEE2, sequence (P0C1S8 whole entry): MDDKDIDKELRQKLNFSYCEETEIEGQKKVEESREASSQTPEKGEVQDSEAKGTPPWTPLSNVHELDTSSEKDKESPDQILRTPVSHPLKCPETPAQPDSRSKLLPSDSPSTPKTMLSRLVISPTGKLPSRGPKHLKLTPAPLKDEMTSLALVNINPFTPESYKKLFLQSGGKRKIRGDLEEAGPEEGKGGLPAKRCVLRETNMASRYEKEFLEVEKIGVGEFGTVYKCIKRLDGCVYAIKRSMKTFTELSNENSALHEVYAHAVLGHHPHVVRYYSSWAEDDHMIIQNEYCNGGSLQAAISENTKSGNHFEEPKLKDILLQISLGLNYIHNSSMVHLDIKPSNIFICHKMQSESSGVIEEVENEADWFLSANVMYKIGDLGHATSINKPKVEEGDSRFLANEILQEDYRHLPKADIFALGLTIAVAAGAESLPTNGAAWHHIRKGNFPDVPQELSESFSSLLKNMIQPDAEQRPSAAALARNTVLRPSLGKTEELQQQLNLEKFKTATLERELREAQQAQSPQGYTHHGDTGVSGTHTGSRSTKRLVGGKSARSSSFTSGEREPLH
T6 sequence (Q52WX2 whole entry): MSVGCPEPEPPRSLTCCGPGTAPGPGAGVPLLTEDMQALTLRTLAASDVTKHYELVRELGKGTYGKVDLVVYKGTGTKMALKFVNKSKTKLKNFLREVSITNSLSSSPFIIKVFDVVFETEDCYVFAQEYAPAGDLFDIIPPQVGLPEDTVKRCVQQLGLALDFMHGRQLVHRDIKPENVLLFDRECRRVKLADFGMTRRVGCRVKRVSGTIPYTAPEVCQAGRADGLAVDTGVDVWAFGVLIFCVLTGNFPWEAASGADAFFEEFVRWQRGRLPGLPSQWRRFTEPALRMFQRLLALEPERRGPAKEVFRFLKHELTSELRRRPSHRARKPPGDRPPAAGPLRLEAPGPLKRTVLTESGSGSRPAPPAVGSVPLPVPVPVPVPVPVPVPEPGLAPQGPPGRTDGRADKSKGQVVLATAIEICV
T4 sequence (P11309 whole entry): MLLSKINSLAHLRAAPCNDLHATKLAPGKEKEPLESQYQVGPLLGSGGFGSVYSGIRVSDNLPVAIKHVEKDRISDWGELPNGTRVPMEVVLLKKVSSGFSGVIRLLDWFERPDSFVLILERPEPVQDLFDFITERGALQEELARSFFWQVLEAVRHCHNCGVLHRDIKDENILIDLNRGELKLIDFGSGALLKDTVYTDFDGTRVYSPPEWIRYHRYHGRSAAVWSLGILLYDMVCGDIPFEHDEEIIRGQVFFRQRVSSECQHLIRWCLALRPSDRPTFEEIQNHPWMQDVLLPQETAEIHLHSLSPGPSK

SMILES	remaining binding at 1 µM [1]	remaining binding at 1 µM [2]	remaining binding at 1 µM [3]	remaining binding at 1 µM [4]	remaining binding at 1 µM [5]	remaining binding at 1 µM [6]	remaining binding at 1 µM [7]	remaining binding at 1 µM [8]	remaining binding at 1 µM [9]	remaining binding at 1 µM [10]	remaining binding at 1 µM [11]	remaining binding at 1 µM [12]	remaining binding at 1 µM [13]	remaining binding at 1 µM [14]	remaining binding at 1 µM [15]	remaining binding at 1 µM [16]
O=C(c1ccc(-c2cnc3[nH]cc(Cl)c3c2NC2CCCC2)cc1)N1CCC(N2CCOCC2)CC1 [Compound 101, (4-(3-chloro-4-(cyclopentylamino)-1H-pyrrolo[2,3-b]pyridin-5-yl)phenyl)(4-morpholinopiperidin-1-yl)methanone]	93%	94%	92%	73%	84%	65%	89%	84%	33%	78%	94%	95%	100%	75%	67%	94%
CNc1c(-c2cnn([C@H]3CCN(C(C)=O)C[C@@H]3F)c2)cnc2[nH]cc(Cl)c12 [Compound 77, 1-((3S,4S)-4-(4-(3-chloro-4-(methylamino)-1H-pyrrolo[2,3-b]pyridin-5-yl)-1H-pyrazol-1-yl)-3-fluoropiperidin-1-yl)ethan-1-one]	100%	99%	81%	81%	95%	14%	100%	92%	15%	58%	79%	95%	100%	51%	44%	95%
CNc1c(-c2ccc(C(=O)N3CCC(N4CCOCC4)CC3)cc2)cnc2[nH]cc(Cl)c12 [Compound 96, (4-(3-chloro-4-(methylamino)-1H-pyrrolo[2,3-b]pyridin-5-yl)phenyl)(4-morpholinopiperidin-1-yl)methanone]	100%	96%	19%	93%	99%	24%	100%	96%	2.6%	19%	51%	100%	100%	87%	63%	100%
